From ChEMBL document CHEMBL4742394, “3-(aryl or heteroaryl) methyleneindolin-2-one derivatives as inhibitors of cancer stem cell pathway kinases for the treatment of cancer” (2019)
The source made the active and inactive calls. The calls are words filed in the database; no cut-off is given here.

How the values were obtained:
[1] = target: Small ribosomal subunit protein eS6 (Homo sapiens) (UniProt P62753); test: Inhibition of RPS6 phosphorylation in human HeLa cells assessed as Ser240/244 phosphorylation level at 5 uM incubated for 6 hrs; type: cell-based; design: scale not given: the % may be the effect or the level left
[2] = target: Small ribosomal subunit protein eS6 (Homo sapiens) (UniProt P62753); test: Inhibition of RPS6 phosphorylation in human HeLa cells assessed as Ser235/236 phosphorylation level at 5 uM incubated for 6 hrs; type: cell-based; design: scale not given: the % may be the effect or the level left
FaDu [3] = test: Growth inhibition of human FaDu cells incubated for 72 hrs by cell-titer Glo luminescence assay; type: functional, cell-based
Homo sapiens = species on record: Homo sapiens; test: Inhibition of ERK phosphorylation (unknown origin) incubated for 6 hrs by Western blot analysis based cell based assay
[4] = target: Small ribosomal subunit protein eS6 (Homo sapiens) (UniProt P62753); test: Inhibition of RPS6 phosphorylation (unknown origin) incubated for 6 hrs by Western blot analysis based cell based assay
FaDu [5] = test: Growth inhibition of human FaDu cancer stem cells incubated for 72 hrs by cell-titer Glo luminescence assay; type: functional, cell-based

Cc1cc(C)c(/C=C2\C(=O)Nc3ccc(-c4csc(C5CCNCC5)n4)cc32)[nH]1
Activity [1]: 76%
Activity [2]: 76%

Cc1ccc(-c2nc(-c3ccc4c(c3)/C(=C/c3[nH]c(C)c(C(=O)N5CCN(C)CC5)c3C)C(=O)N4)cs2)cc1
IC50 (FaDu [3]): 23.7 µM

CCNC(=O)c1c(C)[nH]c(/C=C2\C(=O)Nc3ccc(-c4csc(-c5ccccc5)n4)cc32)c1C
inhibition (Homo sapiens): Active
inhibition [4]: Active

COc1cccnc1-c1ccc2c(c1)/C(=C/c1[nH]c(C)cc1C)C(=O)N2
IC50 (FaDu [5]): 2520 nM
inhibition (Homo sapiens): Active

Cc1cc(C)c(/C=C2\C(=O)Nc3ccc(-c4ccc(C=O)cc4)cc32)[nH]1
inhibition (Homo sapiens): Active

CCOC(=O)CCc1ccc(-c2nc(-c3ccc4c(c3)/C(=C/c3[nH]c(C)c(C(=O)NCCN(CC)CC)c3C)C(=O)N4)cs2)cc1
inhibition (Homo sapiens): Active

CCN(CC)CCNC(=O)c1c(C)[nH]c(/C=C2\C(=O)Nc3ccc(-c4n[nH]c5ccccc45)cc32)c1C
Activity [1]: 26%
Activity [2]: 4%
